For series [1], the system named is db/db mice. As to the kind of experiment: Blood glucose control after a single subcutaneous dose in db/db mice. The class given is in vivo, mouse. The note with it: single s.c. dose, 72 h postinjection.
For series [2] the following is noted: native GLP-1; cited from earlier work.

The source of these data is paper PMC11956005 (Journal of Medicinal Chemistry, 2025).

Where no end group is shown, it is not given here. [ ]: non-standard residue; d: D form. The star is where a group is joined. X1 = CCCCCCCCCCCCCCCC(=O)N[C@@H](CCC(=O)NCCCC[C@H](NC(=O)CCOCCOCCOCCOCCNC(=O)CNC(=O)CCN1C(=O)CC(*)C1=O)C(=O)NCCOCCOCCOCCOCCC(=O)N[C@@H](CCCCNC(=O)CC[C@H](NC(=O)CCCCCCCCCCCCCCCCC(=O)O)C(=O)O)C(=O)OC)C(=O)O; Aib = CC(C)(N)C(=O)O

As for “H[Aib]EGTFTSDVSSYLEGQAAKEFIAWLVRGRGGGGSGGGGSGGGGSGC(X1) [TE-8131]”, in series [1], the “blood sugar reduction (Δglucose from baseline)” value was -8.2 ± 1.4 mmol/L. In the case of `CC[C@H](C)[C@H](NC(=O)[C@H](Cc1ccccc1)NC(=O)[C@H](CCC(=O)O)NC(=O)[C@H](CCCCN)NC(=O)[C@H](C)NC(=O)[C@H](C)NC(=O)[C@H](CCC(N)=O)NC(=O)CNC(=O)[C@H](CCC(=O)O)NC(=O)[C@H](CC(C)C)NC(=O)[C@H](Cc1ccc(O)cc1)NC(=O)[C@H](CO)NC(=O)[C@H](CO)NC(=O)[C@@H](NC(=O)[C@H](CC(=O)O)NC(=O)[C@H](CO)NC(=O)[C@@H](NC(=O)[C@H](Cc1ccccc1)NC(=O)[C@@H](NC(=O)CNC(=O)[C@H](CCC(=O)O)NC(=O)[C@H](C)NC(=O)[C@@H](N)Cc1c[nH]cn1)[C@@H](C)O)[C@@H](C)O)C(C)C)C(=O)N[C@@H](C)C(=O)N[C@@H](Cc1c[nH]c2ccccc12)C(=O)N[C@@H](CC(C)C)C(=O)N[C@H](C(=O)N[C@@H](CCCCN)C(=O)NCC(=O)N[C@@H](CCCN=C(N)N)C(=O)NCC(=O)O)C(C)C` [GLP-1, glucagon-like peptide-1], the intravenous half-life in series [2] was 1.5 to 2 min.
